Experimental data published in article PMC10889512, “Pyrimidine Schiff Bases: Synthesis, Structural Characterization and Recent Studies on Biological Activities” (International Journal of Molecular Sciences, 2024).

Assays:
AGS cell line = test: Comet assay (single-cell gel electrophoresis), AGS; type: cell-based, human
Description: Single-cell gel electrophoresis was performed to assess the potential genotoxic effect on AGS and A172 after incubation with compound 4b at IC50. This method is based on the ability of damaged DNA to migrate out of the cell during electrophoresis. After DNA staining (Hoechst 33342), the characteristic “comet tail” could be observed under the fluorescence microscope. The damages in 100 randomly selected cells were visually classified into five groups according to the length of the “comet tail”. Group 0 consisted of cells without damaged DNA, while group 4 contained cells with maximally long tails. Based on this, a group damage index (DI) was calculated. The genotoxic effect was found in both examined cell lines. […]
The comet assay was performed according to the method of Singh et al. with slight modifications. […] A total of 100 randomly selected cells were scored, and captured comets were classified based on the comet’s tail length as follows: class 0 contained comets with no damaged DNA; class 1, those with low damage; class 2, those with medium damage; class 3, those with high damage; and class 4, those with very high damage. The damage index (DI) was calculated as follows: DI=0×n0+1×n1+2×n2+3×n3+4×n4, n0,1,2,3,4 —the amount of comets in each class.

K. pneumoniae 700603 = test: Antimicrobial activity assay, microdilution; type: cell-based, Klebsiella pneumoniae; conditions: concentration range from 0.5 µg/mL to 256 µg/mL
Description: In vitro antimicrobial and antifungal activity was screened using microdilution and modified Richard’s medium. The assay was performed for compounds 4a, 4b, 4c, and 4d with seven reference microbial strains from ATTC (E. coli 25922, S. aureus 43300, K. pneumoniae 700603, A. baumannii 19606, P. aeruginosa 27853, E. faecalis 29212, and C. albicans 10231).
Seven reference strains from the ATCC collection (Escherichia coli 25922, Staphylococcus aureus 43300, Klebsiella pneumoniae 13883, Acinetobacter baumannii 19606, Pseudomonas aeruginosa 27853, Enterococcus faecalis 29212, and Candida albicans 10231) were used. The assay was performed according to a modified version of Richard et al.’s protocol and ISO standards 20776-1:2019 and 16256:2021 [78, 79]. Microdilution with spectrophotometric measurement was used to calculate MIC50 (minimal inhibitory concentration which decreased the microorganisms’ viability to 50%) values. Briefly, compounds were prepared 100× concentrated in DMSO, and during the whole experiment, they were diluted to 1× with TSB. Serial dilutions of tested compounds were made directly on plates at a concentration range of 0.5 to 256 µg/mL. Microorganisms were incubated for 24 h at 37 °C (bacteria) or 25 °C (yeast) on Petri dishes with TSA. The bacteria/yeast suspensions were prepared at a density 5 × 10^5 CFU/mL (for bacteria) or 0.5–2.5 × 10^5 CFU/mL (for yeast) with TSB. Also, appropriate controls were contained in the experiment: the positive control consisted of a specific strain in TSB, and the negative control was TSB alone. To ensure that used strains were not modified and were still responding to antibacterial/antifungal compounds established by EUCAST, additional tests were conducted with levofloxacin, gentamicin, and amphotericin B. Microplates were incubated on a shaker for 24 h at 37 ± 1 °C or 25 ± 1 °C for the bacteria and yeast strains, respectively. After the incubation, spectrophotometric measurement was performed at 580 nm. MIC50 was calculated by comparing the results obtained for experimental sets with positive controls. Next, 50 µL aliquots of 1% (m/v) TTC solution were added to each well. The plates were incubated on the shaker for 24 h at 37/25 °C. In living microbial cells, colourless TTC is converted into red formazan crystals, which allows for visual observation and MBC/MFC (minimal bactericidal/fungicidal concentration) value assessment.

In the case of `Cc1nc(-c2ccccc2)nc(Nc2ccc(F)cc2)c1C=Nc1cccc(Cl)c1` [compound 4b, 5-{[(3-chlorophenyl)imino]methyl}-N-(4-fluorophenyl)-6-methyl-2-phenylpyrimidin-4-amine], the DNA damage index (AGS cell line; at IC50, 24 h) is reported as 63 arbitrary units, the DNA damage index (AGS cell line; at IC50, 48 h) is reported as 107 arbitrary units and the “MIC and MBC/MFC activity” value (K. pneumoniae 700603) is reported as “Neither MIC nor MBC/MFC activity was observed”.
